Measurements from article PMC8730469 (Bioorganic & Medicinal Chemistry Letters, 2022).

biological target: T1, SARS-CoV-2 M^pro (Severe acute respiratory syndrome coronavirus 2, UniProt P0DTD1); experiment: fast dilution experiment; settings: Fig. S1 and Table S1

Row | SMILES | reversibility of inhibition
1 | O=C(Cn1sc2cccc(F)c2c1=O)Nc1ccccc1 [Compound 16b-3] | irreversible inhibitor

biological target: T1, SARS-CoV-2 M^pro; experiment: not given; type: biochemical; settings: not given

Row | SMILES | inhibitory activity (in words)
2 | Nc1cccc2c(=O)n(CC(=O)Nc3ccccc3)sc12 [Compound 16b-17] | decreased the activity drastically
3 | COc1cccc2c(=O)n(CC(=O)Nc3ccccc3)sc12 [Compound 16b-9] | decreased the activity drastically
4 | O=C(O)Cn1sc2cc(F)ccc2c1=O [Compound 13a] | reduced dramatically
5 | O=c1[nH]sc2cc(F)ccc12 [Compound 3a] | reduced dramatically
6 | O=C(Cn1sc2c(C(F)(F)F)cccc2c1=O)Nc1ccccc1 [Compound 16b-13] | decreased the activity drastically
